Legend:
Format in all cases: binding
[1] = target: Recombinant human integrin αvβ1 (Homo sapiens (Human), UniProt P05556+P06756); assay: Solid Phase Receptor Assay (SPRA) for αvβ1 function; settings: fibronectin-coated plate
Procedure: 2. Solid Phase Receptor Assay (SPRA) for αvβ1 Function
Purified human fibronectin (R&D Systems, 1918-FN) diluted to 5 μg/mL in TBS+ buffer (25 mM Tris pH 7.4, 137 mM NaCl, 2.7 mM KCl, 1 mM CaCl2, 1 mM MgCl2, 1 mM MnCl2) was added to wells (50 μL/well) of a 96-well half-well transparent microtiter plate (Greiner 675061) and incubated overnight at 4° C. Wells were washed 3 times with 150 μL TBS+ and 150 μL of blocking buffer (TBS+ with 1% bovine serum albumin, Sigma A7906) were added. The plate was incubated for 1 hr at 37° C. and then washed 3× with TBS+ buffer. Recombinant human integrin αvβ1 (R&D Systems. 6579-AV) was diluted to 2.0 μg/mL in TBS+/0.1% bovine serum albumin. Compounds were diluted 1:100 into the integrin solution and 50 μL added to empty wells of the washed fibronectin-coated plate according to a standard template with each sample repeated in triplicate. After incubation for two hours at room temperature, the plate was washed 3× with 150 μL of TBS+ buffer. To each well, 50 μL of biotinylated anti-αv antibody (R&D Systems, BAF1219) at 1 μg/mL in TBS+/0.1% BSA were added and the plate covered and incubated for 1 hr at room temperature. After washing the plate 3× with 150 μL of TBS+ buffer, 50 μL of streptavidin-conjugated horseradish peroxidase (R&D Systems, DY998) diluted in TBS+ blocking buffer were added to the wells and the plate incubated for 20 min at room temperature. The plate was washed 3× with TBS+ buffer followed by 50 μL of TMB substrate (Sigma, T4444) added to each well and the plate incubated for 20 min at room temperature. Plates were read by colorimetric detection at 650 nm wavelength using a Tecan Safire II plate reader. Concentration-response curves were constructed by non-linear regression (best fit) analysis, and IC50 values were calculated for each compound.

[2] = target: Recombinant human integrin αvβ5 (Homo sapiens (Human), UniProt P06756+P18084); assay: Solid Phase Receptor Assay (SPRA) for αvβ5 function; settings: vitronectin-coated plate
Sequence of Recombinant human integrin αvβ5 (P06756 31-992): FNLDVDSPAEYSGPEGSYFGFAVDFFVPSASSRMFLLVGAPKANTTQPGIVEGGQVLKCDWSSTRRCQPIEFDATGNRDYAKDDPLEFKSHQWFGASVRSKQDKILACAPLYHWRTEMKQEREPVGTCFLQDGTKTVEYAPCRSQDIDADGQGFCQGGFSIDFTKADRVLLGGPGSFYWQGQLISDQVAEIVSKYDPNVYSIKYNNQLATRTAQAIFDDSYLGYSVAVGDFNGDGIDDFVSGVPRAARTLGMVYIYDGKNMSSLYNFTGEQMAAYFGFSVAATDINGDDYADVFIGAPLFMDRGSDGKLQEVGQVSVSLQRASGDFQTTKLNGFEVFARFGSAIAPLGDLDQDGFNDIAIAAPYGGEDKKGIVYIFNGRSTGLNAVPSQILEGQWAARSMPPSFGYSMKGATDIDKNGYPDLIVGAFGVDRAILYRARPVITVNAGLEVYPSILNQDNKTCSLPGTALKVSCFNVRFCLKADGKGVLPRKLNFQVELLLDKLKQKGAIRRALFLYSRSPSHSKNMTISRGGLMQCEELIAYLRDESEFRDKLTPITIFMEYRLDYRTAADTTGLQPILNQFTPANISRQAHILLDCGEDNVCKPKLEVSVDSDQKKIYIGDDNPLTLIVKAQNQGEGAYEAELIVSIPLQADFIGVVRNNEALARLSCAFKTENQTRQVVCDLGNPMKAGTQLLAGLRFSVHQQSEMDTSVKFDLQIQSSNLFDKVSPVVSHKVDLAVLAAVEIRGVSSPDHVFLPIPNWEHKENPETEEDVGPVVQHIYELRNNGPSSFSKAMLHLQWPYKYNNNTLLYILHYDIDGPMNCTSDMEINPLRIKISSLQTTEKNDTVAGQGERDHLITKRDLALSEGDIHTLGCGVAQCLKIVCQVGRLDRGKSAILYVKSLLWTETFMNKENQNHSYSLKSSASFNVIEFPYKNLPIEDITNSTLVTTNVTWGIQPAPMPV
Sequence of Recombinant human integrin αvβ5 (P18084 24-719): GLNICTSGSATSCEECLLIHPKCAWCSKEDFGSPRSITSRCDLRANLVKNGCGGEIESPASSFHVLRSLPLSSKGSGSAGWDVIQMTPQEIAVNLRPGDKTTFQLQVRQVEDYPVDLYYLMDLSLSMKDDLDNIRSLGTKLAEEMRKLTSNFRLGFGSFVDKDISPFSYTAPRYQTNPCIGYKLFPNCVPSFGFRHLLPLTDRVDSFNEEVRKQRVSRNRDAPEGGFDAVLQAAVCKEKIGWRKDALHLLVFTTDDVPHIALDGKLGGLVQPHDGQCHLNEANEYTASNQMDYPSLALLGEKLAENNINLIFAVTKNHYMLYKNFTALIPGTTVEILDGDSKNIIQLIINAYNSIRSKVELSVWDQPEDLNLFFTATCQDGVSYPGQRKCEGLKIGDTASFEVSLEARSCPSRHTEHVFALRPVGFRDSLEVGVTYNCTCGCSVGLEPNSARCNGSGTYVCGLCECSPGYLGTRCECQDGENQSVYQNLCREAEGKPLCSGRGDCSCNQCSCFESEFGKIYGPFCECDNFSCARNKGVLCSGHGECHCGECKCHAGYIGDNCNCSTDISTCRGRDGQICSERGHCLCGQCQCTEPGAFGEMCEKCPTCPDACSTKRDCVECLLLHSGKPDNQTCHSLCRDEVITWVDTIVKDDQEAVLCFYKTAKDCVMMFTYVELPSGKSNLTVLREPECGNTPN
Procedure: 4. Solid Phase Receptor Assay (SPRA) for αvβ5 Function
Recombinant human vitronectin (R&D Systems, 2308-VN) at 0.25 μg/mL in TBS+ buffer (25 mM Tris pH 7.4, 137 mM NaCl, 2.7 mM KCl, 1 mM CaCl2, 1 mM MgCl2, 1 mM MnCl2) was added to wells (50 μL/well) of a 96-well half-well transparent microtiter plate (Greiner 675061) and incubated overnight at 4° C. Wells were washed 3 times with 150 μL TBS+ and 150 μL of blocking buffer (TBS+ with 1% bovine serum albumin, Sigma A7906) were added. The plate was incubated for 1 hr at 37° C. and then washed 3× with TBS+ buffer. Recombinant human integrin αvβ5 (R&D Systems, 2528-AV) was diluted to 0.1 μg/mL in TBS+/0.1% bovine serum albumin. Compounds were diluted 1:100 into the integrin solution and then 50 μL added to empty wells of the washed vitronectin-coated plate according to a standard template with each sample repeated in triplicate. After incubation for two hours at room temperature, the plate was washed 3× with 150 μL of TBS+ buffer. To each well, 50 μl of biotinylated anti-αv antibody (R&D Systems, BAF1219) at 0.5 μg/mL in TBS+/0.1% BSA at 0.5 μg/mL were added and the plate covered and incubated for 1 hr at room temperature. After washing the plate 3× with 150 μL of TBS+ buffer, 50 μL of streptavidin-conjugated horseradish peroxidase (R&D Systems DY998) diluted in TBS+ blocking buffer were added to the wells and the plate incubated for 20 min at room temperature. The plate was washed 3× with TBS+ buffer followed by 50 μL of TMB substrate (Sigma T4444) added to each well and the plate incubated for 20 min at room temperature. Plates were read by colorimetric detection at 650 nm wavelength using a Tecan Safire II plate reader. Concentration-response curves were constructed by non-linear regression (best fit) analysis, and IC50 values were calculated for each compound.

[3] = target: Recombinant human integrin αvβ8 (Homo sapiens (Human), UniProt P06756+P26012); assay: Solid Phase Receptor Assay (SPRA) for αvβ8 function; settings: LAP-coated plate
Sequence of Recombinant human integrin αvβ8 (P06756 31-992): as the sequence (P06756 31-992) above
Sequence of Recombinant human integrin αvβ8 (P26012 43-684): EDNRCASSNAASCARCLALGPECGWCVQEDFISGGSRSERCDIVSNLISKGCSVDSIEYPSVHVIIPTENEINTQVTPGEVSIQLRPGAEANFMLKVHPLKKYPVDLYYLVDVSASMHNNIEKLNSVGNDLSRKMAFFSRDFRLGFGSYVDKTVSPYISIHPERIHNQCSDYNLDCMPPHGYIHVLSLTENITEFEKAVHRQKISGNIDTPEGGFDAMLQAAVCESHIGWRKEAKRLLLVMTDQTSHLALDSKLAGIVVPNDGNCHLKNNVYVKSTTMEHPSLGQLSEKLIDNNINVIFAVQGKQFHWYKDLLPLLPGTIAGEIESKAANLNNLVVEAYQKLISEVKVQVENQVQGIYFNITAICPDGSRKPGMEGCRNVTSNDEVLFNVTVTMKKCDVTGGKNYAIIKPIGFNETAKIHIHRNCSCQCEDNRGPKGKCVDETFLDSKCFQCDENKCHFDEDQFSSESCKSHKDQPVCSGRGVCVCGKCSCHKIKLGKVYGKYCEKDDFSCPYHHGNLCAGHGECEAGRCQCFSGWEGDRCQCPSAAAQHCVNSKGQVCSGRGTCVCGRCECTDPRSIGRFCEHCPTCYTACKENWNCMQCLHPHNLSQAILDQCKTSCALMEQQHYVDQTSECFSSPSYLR
Procedure: 6. Solid Phase Receptor Assay (SPRA) for αvβ8 Function
Recombinant human LAP protein (R&D Systems, Inc, 246-LP) diluted to 0.5 μg/mL in TBS+ buffer (25 mM Tris pH 7.4, 137 mM NaCl, 2.7 mM KCl, 1 mM CaCl2, 1 mM MgCl2, 1 mM MnCl2) was added to wells (50 μl/well) of a 96-well half-well transparent microtiter plate (Greiner 675061), and incubated overnight at 4° C. Wells were washed 3 times with 150 μL TBS+ and 150 μL of blocking buffer (TBS+ with 1% bovine serum albumin, Sigma A7906) were added. The plate was incubated for 1 hr at 37° C. and then washed 3× with TBS+. Recombinant human integrin αvβ8 (R&D Systems, 4135-AV) was diluted to 0.1 μg/mL in TBS+/0.1% bovine serum albumin. Compounds were diluted 1:100 into the integrin solution and 50 μL added to empty wells of the washed LAP-coated plate according to a standard template with each sample repeated in triplicate. After incubation for two hours at room temperature, the plate was washed 3× with 150 μL of TBS+. To each well, 50 μL of biotinylated anti-αv antibody (R&D Systems, BAF1219) at 1 μg/mL in TBS+/0.1% BSA were added and the plate was covered and incubated for 1 hr at room temperature. After washing the plate 3× with 150 μL of TBS+ buffer, 50 μL of streptavidin-conjugated horseradish peroxidase (R&D Systems, DY998) diluted in TBS+ blocking buffer were added to the wells and the plate incubated for 20 min at room temperature. The plate was washed 3× with TBS+ followed by 50 μL of TMB substrate (Sigma T4444) added to each well and the plate incubated for 20 min at room temperature. Plates were read by colorimetric detection at 650 nm wavelength using a Tecan Safire II plate reader. Concentration-response curves were constructed by non-linear regression (best fit) analysis, and IC50 values were calculated for each compound.

Sequence of Recombinant human integrin αvβ1 (P06756 31-992): as the sequence (P06756 31-992) above
Sequence of Recombinant human integrin αvβ1 (P05556 21-728): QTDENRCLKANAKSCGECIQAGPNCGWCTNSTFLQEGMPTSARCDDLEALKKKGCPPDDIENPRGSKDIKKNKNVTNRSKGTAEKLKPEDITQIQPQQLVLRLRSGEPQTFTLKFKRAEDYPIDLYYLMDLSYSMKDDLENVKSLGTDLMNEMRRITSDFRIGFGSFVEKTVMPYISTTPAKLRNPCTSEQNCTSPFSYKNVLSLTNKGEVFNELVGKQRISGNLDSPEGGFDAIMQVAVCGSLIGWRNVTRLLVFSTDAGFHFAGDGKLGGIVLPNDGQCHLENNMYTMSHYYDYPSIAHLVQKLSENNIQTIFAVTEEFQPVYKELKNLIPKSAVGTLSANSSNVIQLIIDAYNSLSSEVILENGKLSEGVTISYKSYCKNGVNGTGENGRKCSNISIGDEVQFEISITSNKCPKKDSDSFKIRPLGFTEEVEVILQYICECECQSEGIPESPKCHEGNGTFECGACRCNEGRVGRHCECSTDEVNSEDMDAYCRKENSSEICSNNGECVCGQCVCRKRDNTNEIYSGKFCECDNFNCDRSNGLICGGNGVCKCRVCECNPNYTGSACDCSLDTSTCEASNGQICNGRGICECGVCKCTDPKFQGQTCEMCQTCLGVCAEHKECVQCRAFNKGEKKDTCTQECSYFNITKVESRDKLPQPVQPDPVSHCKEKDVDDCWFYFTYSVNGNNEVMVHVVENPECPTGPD

Row | SMILES | IC50 [1] [nM] | IC50 [2] [nM] | IC50 [3] [nM]
1 | O=C(O)C[C@H](NC(=O)CNC(=O)c1cc(O)cc(NC2=NCC(O)CN2)c1)c1cc(Cl)cc(OC(F)(F)F)c1 (stereo partly drawn) [Example 16, (3S)-3-[3-chloro-5-(trifluoromethoxy)phenyl)-3-(2-(3-hydroxy-5-((5-hydroxy-1,4,5,6-tetrahydropyrimidin-2-yl)amino)benzamido)acetamido)propanoic acid] | 3 ± 2 | 0.6 | 0.3 ± 0.1
2 | O=C(O)C[C@H](NC(=O)CNC(=O)c1cc(O)cc(NC2=NCC(O)CN2)c1)c1cc(Br)cc(OC(F)(F)F)c1 (stereo partly drawn) [Example 17, (3S)-3-(3-bromo-5-(trifluoromethoxy)phenyl)-3-(2-(3-hydroxy-5-((5-hydroxy-1,4,5,6-tetrahydropyrimidin-2-yl)amino)benzamido)acetamido)propanoic acid] | 4 ± 2 | 0.6 | 0.3 ± 0.1
3 | O=C(O)C[C@H](NC(=O)CNC(=O)c1cc(O)cc(NC2=NCC(O)CN2)c1)c1cc(Cl)cc(Br)c1O (stereo partly drawn) [Example C1, reference compound] | 17 ± 2 | 3 ± 1 | 3 ± 2
4 | O=C(O)C[C@H](NC(=O)CNC(=O)c1cc(O)cc(NC2=NCC(O)CN2)c1)c1ccccc1 (stereo partly drawn) [Example C2, reference compound] | 5 | 0.4 | 5
5 | O=C(O)CC(NC(=O)CNC(=O)c1cc(O)cc(NC2=NCC(O)CN2)c1)c1cc(Cl)cc(Cl)c1O (stereo not drawn) [Example C3, reference compound] | 7 | 2 | 2
6 | Cc1cc(C)cc(C(CC(=O)O)NC(=O)CNC(=O)c2cccc(NC(=N)N)c2)c1 (stereo not drawn) [Example C4, reference compound] | 10 | 2 | 6
7 | N=C(N)Nc1cccc(C(=O)NCC(=O)NC(CC(=O)O)c2ccccc2)c1 (stereo not drawn) [Example C5, reference compound] | 17 ± 5 | 1 | 66
8 | Cc1ccc(O)c(C(CC(=O)O)NC(=O)CNC(=O)c2cc(O)cc(NC3=NCC(O)CN3)c2)c1 (stereo not drawn) [Example C6, reference compound] | 8 ± 6 | 1 | 9 ± 6
9 | O=C(O)CC(NC(=O)CNC(=O)c1cc(O)cc(NC2=NCC(O)CN2)c1)c1cc(Br)cc(Br)c1O (stereo not drawn) [Example C7, reference compound] | 101 | 25 | 7
10 | Cc1ccc(O)c(C(CC(=O)O)NC(=O)CNC(=O)c2cccc(NC(=N)N)c2)c1 (stereo not drawn) [Example C8, reference compound] | 13 | 5 | 18
11 | N=C(N)Nc1cccc(C(=O)NCC(=O)NC(CC(=O)O)c2cc(F)cc(C(F)(F)F)c2)c1 (stereo not drawn) [Example C9, reference compound] | 5 ± 2 | 0.4 | 6 ± 3
12 | Cc1cc(Cl)cc([C@@H](CC(=O)O)NC(=O)CNC(=O)c2cc(O)cc(NC3=NCC(O)CN3)c2)c1O (stereo partly drawn) [Example C10, reference compound] | 14 ± 8 | 2 | 5
13 | Cc1cc(Cl)cc([C@@H](CC(=O)O)NC(=O)CNC(=O)c2cccc(NC3=NCCN3)c2)c1O [Example C11, reference compound] | 16 ± 4 | 2 | 11
